Source: US7105539B2, “Derivatives of succinic and glutaric acids and analogs thereof useful as inhibitors of phex” (Enobia Pharma, priority 2002, dated 2006)

What was measured:
rat mandibular defect = experiment: Bone lesion repair in rat mandibular defect model (hydroxyapatite particles soaked in inhibitor); assay type: in vivo; conditions: for bone formation (scanning electron microscopy, % of total defect area): 14 days healing
Experimental: Osteogenic properties of PHEX inhibitors can be shown in a model of rat mandibular defect. For example, a 2 mm size bone defect was created in the rat mandible as described previously (Vu et al., 1999). Rats were anesthetized and the vestibular surface of the right mandibular ramus was exposed as follow: an incision was made through the skin along an imaginary line forming a 90° angle with the lower lip to access the muscle layer. A scalpel blade was used to make an incision parallel to the fibers of the deep portion of masseter muscle, about 2 mm posterior to the facial artery (largest branch of the external carotid), in the portion where it gives rise to the labial mandibular artery. The periosteum was elevated and the underlying bony surface exposed. A 2 mm×2 mm bony window was drilled between the second and third molar using a slow-speed dental drill with a carbide round burr size 1.4 mm (Brasseler) and a drill size 2 mm (Straumann Canada Ltd). Saline irrigation was used during the drilling. Porous hydroxyapatite particles (Fin-Ceramica Faenza s.r.l.) with pore size ranged from 450 to 600 μm were accommodated in the bony hole and pushed into it. The particles had been incubated previously in solutions of varying concentrations of PHEX inhibitor or vehicle for 16 to 24 hours at 4° C. Once the bony window was filled the lesion was covered with a membrane of hydroxyapatite (Fin-Ceramica Faenza s.r.l.) which was fixed to the surrounding bone surface with topical tissue adhesive. The muscle fibers were carefully repositioned on the mandible and sutured with absorbable surgical sutures (Chromic Gut, Ethicon Inc.). The skin was sutured for total coverage with silk sutures (Sherwood Davis & Geck, Wayne). After 7 days of treatment the bone lesion was exposed and varying concentrations of PHEX inhibitor or vehicle was reapplied to hydroxyapatite particles. Treatment was continued for another 7 days.
After the 14 day healing period, bone formation at the defect was evaluated by scanning electron microscopy and microcomputed tomography. Animals were sacrificed by intravascular perfusion through the left ventricle with 4% paraformaldehyde and 0.1% glutaraldehyde solution. Treated hemimandibles were taken, immersed in the fixative overnight at 4° C. then washed and kept in 0.1 M cacodylate buffer pH 8.0 until analysis. Specimens for quantification by scanning electron microscopy were dehydrated in a graded alcohol series and embedded in LR White resin (Marivac) for further sectioning along their longitudinal axis. […] Amount of bone tissue present in the sections was quantified by manual tracing using the MOP-3 system (Carl Zeiss) and was expressed as a percentage of the total defect area. […]

sPHEX = target: T1, sPHEX (Homo sapiens, UniProt P78562); experiment: Protection of PHEX substrate PTHrP107-139 from sPHEX degradation (RP-HPLC); assay type: biochemical; conditions: 1×10^−5M inhibitor, 1.0 μg sPHEX, 30 min, 37° C.; without inhibitor approximately 75% degraded
T1 construct: The soluble form of the metallopeptidase PHEX (sPHEX) was purified to homogeneity; made in house
T1 sequence (P78562 53-749 limits assumed): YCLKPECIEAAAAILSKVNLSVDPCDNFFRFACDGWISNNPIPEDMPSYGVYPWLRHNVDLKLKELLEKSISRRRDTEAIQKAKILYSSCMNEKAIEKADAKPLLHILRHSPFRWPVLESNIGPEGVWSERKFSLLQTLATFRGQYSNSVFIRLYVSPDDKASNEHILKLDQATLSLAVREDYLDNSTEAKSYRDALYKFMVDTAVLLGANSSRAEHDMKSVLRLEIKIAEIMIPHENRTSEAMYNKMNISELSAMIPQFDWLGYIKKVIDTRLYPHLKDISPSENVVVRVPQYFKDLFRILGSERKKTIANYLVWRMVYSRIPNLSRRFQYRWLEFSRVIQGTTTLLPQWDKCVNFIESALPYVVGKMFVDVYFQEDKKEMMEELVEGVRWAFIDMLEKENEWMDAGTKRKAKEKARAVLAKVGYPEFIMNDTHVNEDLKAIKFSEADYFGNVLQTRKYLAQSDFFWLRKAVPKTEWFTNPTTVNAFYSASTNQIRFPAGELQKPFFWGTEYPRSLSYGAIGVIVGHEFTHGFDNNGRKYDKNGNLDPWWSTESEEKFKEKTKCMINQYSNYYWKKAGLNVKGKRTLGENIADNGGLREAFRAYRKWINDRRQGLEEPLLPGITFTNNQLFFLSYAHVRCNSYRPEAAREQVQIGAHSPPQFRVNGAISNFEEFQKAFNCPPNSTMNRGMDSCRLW
Experimental: In general, in order to show inhibition of sPHEX, the enzyme is incubated in the absence or the presence of the inhibiting compound, and a substrate is added in conditions that are suitable for sPHEX enzymatic activity. Hydrolysis of the substrate in the absence or the presence of the inhibiting compound is monitored.
For example, 1.0 μg of purified sPHEX was first incubated at 37° C. for 15 min with or without 1×10^−5M of compound MH-2-64C (FIG. 1) in 90 μl 50 mM MES (2-(N-morpholino)ethanesulfonic acid) pH 6.5, 150 mM NaCl. Then, 2.5 μg of peptide PTHrP107-139 in 10 μl of the same buffer were added and the incubation continued for 30 min. The reaction mixture also contained 1.3 μg of the amino acid Phe which was used as an internal standard. After the incubation period, the reaction was stopped by the addition of EDTA to a final concentration of 5 mM. Detection of cleavage products was performed by reverse phase high performance liquid chromatography (RP-HPLC) on a C18 μBondapak™ analytical column (Waters, Mississauga, ON, Canada) with a UV detector set at 220 nm. […] Results were quantified by comparing the area under the undigested peak of PTHrP107-139, after normalization for the amount of Phe present in the sample. […]

degradation of PTHrP107-139 by sPHEX (sPHEX): fully prevented
Structure (SMILES): O=C(O)CC(CC(=O)NO)C(=O)NCCc1ccc(-c2ccccc2)cc1 (centres unmarked) [Example 126, 3-(2-Biphenyl-4-yl-ethylcarbamoyl)-4-hydroxycarbamoyl-butyric acid]
bone formation (scanning electron microscopy, % of total defect area) (rat mandibular defect; 1×10^−5 M on hydroxyapatite particles, compared to saline): reduced significantly
bone formation (microcomputed tomography 3D reconstruction) (rat mandibular defect; high inhibitor dose, one representative specimen): reduced bone formation
bone around particles (microcomputed tomography 3D reconstruction) (rat mandibular defect; low dose of inhibitor vs particles soaked in saline, one representative specimen): more bone
bone formation (scanning electron microscopy, % of total defect area) (rat mandibular defect; lower concentrations on hydroxyapatite particles): significantly stimulated
